The NIST ThermoML archive (doi:10.1007/s10765-006-0093-7)

Details: Gas, Hot wire method

[Ar] [argon]
Details	thermal conductivity [W/m/K]
304.8 K, 1020 kPa	0.01821
304.8 K, 1560 kPa	0.01835
304.8 K, 2320 kPa	0.01869
304.8 K, 2590 kPa	0.01877
304.8 K, 4470 kPa	0.01959
329 K, 1200 kPa	0.0193
329 K, 1270 kPa	0.01953
329 K, 1960 kPa	0.01978
329 K, 2340 kPa	0.01995
329 K, 3030 kPa	0.02016
329 K, 3630 kPa	0.0203
329 K, 5980 kPa	0.02118
329 K, 7320 kPa	0.02192
360.05 K, 1240 kPa	0.02086
360.05 K, 1560 kPa	0.02098
360.05 K, 1640 kPa	0.02104
360.05 K, 2240 kPa	0.02129
360.05 K, 3200 kPa	0.02158
360.05 K, 4160 kPa	0.02192
360.05 K, 8720 kPa	0.0239
389.3 K, 1390 kPa	0.02227
389.3 K, 2140 kPa	0.02255
389.3 K, 2780 kPa	0.02276
389.3 K, 3330 kPa	0.02288
389.3 K, 3560 kPa	0.02304
389.3 K, 4190 kPa	0.02323
389.3 K, 5350 kPa	0.02353
389.3 K, 6050 kPa	0.02385
389.3 K, 6660 kPa	0.02405
389.3 K, 7500 kPa	0.0243
389.3 K, 8260 kPa	0.02466
389.3 K, 8500 kPa	0.02463
417.5 K, 1210 kPa	0.02336
417.5 K, 1400 kPa	0.02343
417.5 K, 2110 kPa	0.02369
417.5 K, 2740 kPa	0.02395
417.5 K, 3420 kPa	0.02415
417.5 K, 4130 kPa	0.02432
417.5 K, 4800 kPa	0.02459
417.5 K, 5470 kPa	0.02478
417.5 K, 6180 kPa	0.02504
417.5 K, 6890 kPa	0.02521
417.5 K, 7580 kPa	0.0256
417.5 K, 8270 kPa	0.02577
475.7 K, 1090 kPa	0.02562
475.7 K, 1410 kPa	0.02575
475.7 K, 2120 kPa	0.02608
475.7 K, 2790 kPa	0.02636
475.7 K, 3520 kPa	0.02652
475.7 K, 4250 kPa	0.02683
475.7 K, 5010 kPa	0.02692
475.7 K, 6100 kPa	0.02742
475.7 K, 7980 kPa	0.02789
